In series [1] the target is T1, prostacyclin receptors (IP receptors) of human thrombocyte membranes (Homo sapiens, UniProt P43119).
T1 construct: 300-1000 μg/ml human thrombocyte membranes per charge; tissue Maco Pharma, Langen (buffy coats); host or cells: human thrombocyte (platelet) membranes prepared from human blood buffy coats
As to the kind of experiment: Binding to prostacyclin receptors (IP receptors) of human thrombocyte membranes (3H-Iloprost displacement). The conditions noted are these: 3 nM 3H-Iloprost, 60 min, room temperature. The procedure: B-1. Studies of Binding to Prostacyclin Receptors (IP Receptors) of Human Thrombocyte Membranes
Thrombocyte membranes are obtained by centrifuging 50 ml human blood (Buffy coats with CDP Stabilizer, from Maco Pharma, Langen) for 20 min at 160×g. Remove the supernatant (platelet-rich plasma, PRP) and then centrifuge again at 2000×g for 10 min at room temperature. Resuspend the sediment in 50 mM tris-(hydroxymethyl)-aminomethane, which has been adjusted to a pH of 7.4 with 1 N hydrochloric acid, and store at −20° C. overnight. On the next day, centrifuge the suspension at 80000×g and 4° C. for 30 minDiscard the supernatant. Resuspend the sediment in 50 mM tris-(hydroxymethyl)-aminomethane/hydrochloric acid, 0.25 mM ethylene diamine tetraacetic acid (EDTA), pH 7.4, and then centrifuge once again at 80000×g and 4° C. for 30 min. Take up the membrane sediment in binding buffer (50 mM tris-(hydroxymethyl)-aminomethane/hydrochloric acid, 5 mM magnesium chloride, pH 7.4) and store at −70° C. until the binding test.
For the binding test, incubate 3.nM ^3H-Iloprost (592 GBq/mmol, from AmershamBioscience) for 60 min with 300-1000 μg/ml human thrombocyte membranes per charge (max. 0.2 ml) in the presence of the test substances at room temperature. After stopping, add cold binding buffer to the membranes and wash with 0.1% bovine serum albumin. After adding Ultima Gold Scintillator, quantify the radioactivity bound to the membranes using a scintillation counter. The nonspecific binding is defined as radioactivity in the presence of 1 μM Iloprost (from Cayman Chemical, Ann Arbor) and is as a rule <25% of the bound total radioactivity. The binding data (IC50 values) are determined using the program GraphPad Prism Version 3.02.

For series [2] the following is noted: rapid non-enzymatic transformation to inactive metabolite 6-keto-prostaglandin-F1alpha; cited from earlier work.

T1 sequence (P43119 whole entry): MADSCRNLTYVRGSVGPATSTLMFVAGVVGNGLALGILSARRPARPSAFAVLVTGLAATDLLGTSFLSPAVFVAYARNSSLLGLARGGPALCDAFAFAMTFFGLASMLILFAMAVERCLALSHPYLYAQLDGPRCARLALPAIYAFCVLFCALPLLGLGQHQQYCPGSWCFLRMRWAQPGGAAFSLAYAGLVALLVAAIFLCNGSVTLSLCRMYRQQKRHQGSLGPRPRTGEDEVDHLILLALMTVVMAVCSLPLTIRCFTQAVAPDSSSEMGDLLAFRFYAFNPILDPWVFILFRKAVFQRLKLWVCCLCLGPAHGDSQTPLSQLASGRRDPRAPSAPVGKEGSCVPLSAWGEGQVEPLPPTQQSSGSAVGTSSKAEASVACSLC

Broadly, the IC50 is the concentration needed to halve the response being measured. `COc1ccc(-c2c(-c3ccccc3)oc3ncnc(O[C@H]4CCC[C@H](OCC(=O)O)C4)c23)cc1` (racemic) [Example 69] had an IC50 in series [1] of 8 nM.

`CCc1ccc(-c2c(-c3ccccc3)oc3ncnc(N[C@H]4CCC[C@H](OCC(=O)O)C4)c23)cc1` (racemic) [Example 146] displayed an IC50 in series [1] of 20 nM.

`COc1ccc(-c2c(-c3ccccc3)oc3ncnc(O[C@H]4CCC[C@@H](OCC(=O)O)C4)c23)cc1` (single isomer, unassigned) [Example 67] registered an IC50 in series [1] of 388 nM.

For `COc1ccc(-c2c(-c3ccccc3)oc3ncnc(O[C@H]4CCC[C@@H](OCC(=O)O)C4)c23)cc1` (single isomer, unassigned) [Example 68], the half-maximal inhibitory concentration (IC50) in series [1] was found to be 34 nM.

As to `CCc1ccc(-c2c(-c3ccccc3)oc3ncnc(O[C@@H]4CCCN(CCCC(=O)O)C4)c23)cc1F` (single isomer, unassigned) [Example 159], the IC50 in series [1] was found to be 83 nM.

Molecule `O=C(O)COc1cccc(Nc2ncnc3oc(-c4ccccc4)c(-c4ccc(F)cc4)c23)c1` [Example 6, 3-{[5-(4-Fluorophenyl)-6-phenylfuro[2,3-d]pyrimidin-4-yl]amino}phenoxyacetic acid] yielded an IC50 in series [1] of 237 nM.

`COC(=O)COc1cccc(Nc2ncnc3oc(-c4ccccc4)c(-c4ccc(OC)cc4)c23)c1` [Example 9, 3-{[5-(4-methoxyphenyl)-6-phenylfuro[2,3-d]pyrimidin-4-yl]amino}phenoxyacetic acid methyl ester] gave an IC50 in series [1] of 43 nM.

In turn, `COc1ccc(-c2c(-c3ccccc3)oc3ncnc(Nc4cccc(OCC(=O)O)c4)c23)cc1` [Example 10, 3-{[5-(4-Methoxyphenyl)-6-phenylfuro[2,3-d]pyrimidin-4-yl]amino}phenoxyacetic acid] showed an IC50 in series [1] of 18 nM.

As to `COc1ccc(-c2c(-c3ccccc3)oc3ncnc(Nc4cccc(/C=C/C(=O)O)c4)c23)cc1` [Example 21, (2E)-3-(3-{[5-(4-Methoxyphenyl)-6-phenylfuro[2,3-d]pyrimidin-4-yl]amino}phenyl)acrylic acid], the IC50 in series [1] worked out at 11 nM.

For `COc1ccc(-c2c(-c3ccccc3)oc3ncnc(Oc4ccc(CCC(=O)O)cc4)c23)cc1` [Example 24, 3-(4-{[5-(4-Methoxyphenyl)-6-phenylfuro[2,3-d]pyrimidin-4-yl]oxy}phenyl)propanoic acid], the IC50 in series [1] came out at 15 nM.

Take `COc1ccc(-c2c(-c3ccccc3)oc3ncnc(OC4CCCN(CCCC(=O)O)C4)c23)cc1` (centres unmarked) [Example 84]: the IC50 in series [1] was 152 nM.

As for `COc1ccc(-c2c(-c3ccccc3)oc3ncnc(N[C@H]4CCC[C@H](OCC(=O)O)C4)c23)cc1` [Example 87], the concentration for half-maximal inhibition (IC50) in series [1] turned out to be 17 nM.

Molecule `COc1ccc(-c2c(-c3ccccc3)oc3ncnc(O[C@@H]4CCCN(CCc5nnn[nH]5)C4)c23)cc1` [Example 99] had a half-maximal inhibitory concentration (IC50) in series [1] of 34 nM.

Consider `CCc1ccc(-c2c(-c3ccccc3)oc3ncnc(O[C@@H]4CCCN(CCCC(=O)O)C4)c23)cc1` [Example 154], for which the IC50 in series [1] came out at 28 nM.

In series [1], `O=C(O)CO[C@@H]1CCC[C@H](Oc2ncnc3oc(-c4ccccc4)c(-c4ccc(Cl)cc4)c23)C1` [Example 156] gave a half-inhibitory concentration (IC50) of 293 nM.

For `COc1ccc(-c2c(-c3ccccc3)oc3ncnc(O[C@H]4CC[C@H](OCC(=O)O)C4)c23)cc1` [Example 162], the IC50 in series [1] turned out to be 37 nM.

`COc1ccc(-c2c(-c3ccccc3)oc3ncnc(N[C@H]4CC[C@@H](OCC(=O)O)C4)c23)cc1` [Example 168] came in with an IC50 in series [1] of 71 nM.

Regarding `COc1ccc(-c2c(-c3ccccc3)oc3ncnc(N[C@@H]4CC[C@@H](OCC(=O)O)C4)c23)cc1` [Example 170], in series [1], the IC50 is 6 nM.

With `CCc1ccc(-c2c(-c3ccccc3)oc3ncnc(O[C@@H]4C=C[C@@H](OCC(=O)O)C4)c23)cc1` [Example 175], the IC50 in series [1] stood at 13 nM.

For `CCc1ccc(-c2c(-c3ccccc3)oc3ncnc(N[C@@H]4C=C[C@@H](OCC(=O)O)C4)c23)cc1` [Example 176], in series [1], the IC50 was determined as 24 nM.

With `CCc1ccc(-c2c(-c3ccccc3F)oc3ncnc(O[C@@H]4CCCN(CCCC(=O)O)C4)c23)cc1` [Example 181, 4-[(3R)-3-{[5-(4-Ethylphenyl)-6-(2-fluorophenyl)furo[2,3-d]pyrimidin-4-yl]oxy}piperidin-1-yl]-butyric acid], in series [1], the IC50 stood at 27 nM.

Consider `COC(=O)CCCN1CCC[C@@H](Oc2ncnc3oc(-c4ccccc4F)c(-c4ccc(OC)cc4)c23)C1` [Example 183, 4-[(3R)-3-{[6-(2-Fluorophenyl)-5-(4-methoxyphenyl)furo[2,3-d]pyrimidin-4-yl]oxy}piperidin-1-yl]butyric acid methyl ester], for which, in series [1], the concentration for half-maximal inhibition (IC50) was 218 nM.

For the molecule `CCCCC[C@H](O)/C=C/[C@@H]1[C@H]2C/C(=C/CCCC(=O)O)O[C@H]2C[C@H]1O` [PGI2, Prostacyclin], the half-life entry in series [2] is on record as “approx. 3 minutes”.

Values taken from patent US8324222B2, “Cyclically substituted furopyrimidine derivatives and use thereof” (Bayer Intellectual Property GmbH, priority 2005, dated 2012).
